A melting point compilation (Tetko et al.)

SMILES | melting point [°C]
OC(CNCc1ccccc1)c1ccsc1 (configuration not stated) | 78 to 80
Cn1cnc(-c2ccc(C(=O)O)cc2)n1 | 274 to 276
Nc1cccc(Sc2ccc(Cl)cc2)c1 | 58 to 60
CC1CN(S(=O)(=O)c2ccc(N)cc2)CC(C)O1 (configuration not stated) | 199 to 203
Cc1ccc(I)c(O)c1 | 62 to 64
Cc1ccc(-c2csc(S)n2)cc1 | 192 to 194
O=C(O)C1CCCCN1S(=O)(=O)c1ccc(Br)cc1 (configuration not stated) | 133 to 135
CCOc1ccccc1-c1cc(C(=O)O)n[nH]1 | 224 to 226
COc1ccc(-c2nn(-c3ccccc3)cc2C(=O)O)cc1 | 244 to 246
CCCn1c(S)nc2cc(S(N)(=O)=O)ccc21 | 190 to 194
COC(=O)c1csc([N+](=O)[O-])c1 | 77 to 79
Cc1ccc(N2C(=O)NC(=O)C2C)cc1 (configuration not stated) | 110 to 112
COC(=O)c1n[nH]c(C)c1Br | 148 to 150
O=C(O)c1c[nH]cc1-c1ccc2c(c1)OCCO2 | 196 to 198
O=C(CC(=O)Nc1ccc(F)cc1)Nc1ccc(F)cc1 | 217 to 219
N#Cc1ccc2c(c1)C=CS2(=O)=O | 149 to 151
O=C(O)COc1ccc2cc(Br)ccc2c1 | 224 to 226
CC1C=CC2C(=O)N(Cc3ccccc3)C(=O)C2C1C(=O)O (configuration not stated) | 204 to 206
CS(=O)Cc1c(C(=O)O)sc2ccccc12 (configuration not stated) | 183 to 185
N#CCc1c[nH]c2ccc(Br)cc12 | 103 to 105
O=Cc1ccc(-c2ccc(F)cc2)s1 | 111 to 113
NNC(=S)NC1CCC1 | 96 to 98
O=C1CSCc2ccccc21 | 56 to 58
CC(Cl)C(=O)Nc1ccc(Cl)cn1 (configuration not stated) | 88 to 90

SMILES | melting point [°C]
CC(C)CNS(=O)(=O)c1ccc(C(=O)O)cc1 | 238 to 240
O=C(O)c1cccc(S(=O)(=O)N2CCc3ccccc3C2)c1 | 55 to 58
O=C(O)C1CSCN1C(=O)c1ccc(Cl)cc1 (configuration not stated) | 60 to 62
O=[N+]([O-])c1ccc(F)cc1S(=O)(=O)Cl | 57 to 59
CSc1ccc(C(=O)O)cc1[N+](=O)[O-] | 225 to 227
O=C(O)c1sccc1C1CC1 | 169 to 171
O=c1[nH]c(-c2cccc(F)c2)cs1 | 198 to 200
Nc1ccccc1C(=O)NCc1ccccc1 | 125 to 127
Cc1ccc(O)c(C(=O)Nc2nc(CC(=O)O)cs2)c1 | 271 to 273
COc1ccc(C(C)=O)cc1-c1ccccc1 | 91 to 93
O=C(O)c1ccccc1SC1CCS(=O)(=O)C1 (configuration not stated) | 165 to 167
O=C(O)c1ccccc1SCc1ccc(Br)cc1 | 233 to 235
O=C(O)CCCCc1ccc(Cl)cc1 | 64 to 66
CCOc1ccc(NC(=O)CCl)cc1 | 149 to 151
Cc1ccc(S(=O)(=O)N2CCC(N)CC2)cc1 | 105 to 109
Cc1oncc1C(=O)Nc1ccc(O)c(C(=O)O)c1 | 249 to 251
Fc1cccc(CBr)c1Cl | 39 to 41
CN(C)S(=O)(=O)c1cccc(C(=O)O)c1 | 146 to 150
CCC1Oc2c(Cl)cccc2NC1=O (configuration not stated) | 139 to 141
CC(C)(C)c1cnc(N)s1 | 79 to 81
CCOC(=O)Nc1snc(C)c1C(C)=O | 80 to 82
CCc1nnnn1-c1ccccc1N | 107 to 109
O=C(CCl)NC1CCC(C(F)(F)F)CC1 (configuration not stated) | 65 to 67
NNC(=O)C1COCCO1 (configuration not stated) | 106 to 108

SMILES | melting point [°C]
Cc1cc(Br)cc2c(=O)cc[nH]c12 | 249 to 251
O=C(O)C1(Cc2ccccc2)CC2CCC1C2 (configuration not stated) | 89 to 91
CCCCc1ccc(NC(=O)/C=N/O)cc1 | 120 to 122
Nc1nc(-c2ccc(N3CCCC3=O)cc2)cs1 | 283 to 285
CCCCc1nc(-c2cccc(O)c2)no1 | 51 to 53
Nc1cccc(C(=O)NCc2ccccc2F)c1 | 204 to 206
c1ccc2c(c1)CN1CCCC1CN2 (configuration not stated) | 107 to 109
COC(=O)C(Cc1c[nH]c2ccccc12)NC(=O)CCl (configuration not stated) | 130 to 132
Clc1cc(Cl)cc(-c2noc(Cl)n2)c1 | 67 to 69
Nc1nc(-c2ccccc2F)cs1 | 102 to 104
Cn1cc2c(cc1=O)CCN2 | 204 to 206
COc1ccc(C#N)c(N)c1 | 91 to 93
Cc1ccnc(S(N)(=O)=O)c1 | 163 to 165
N#Cc1cc2c(nc1Cl)CCC2 | 126 to 128
COc1cc(C#N)ccc1OCCCl | 95 to 97
COC(=O)c1cc(S(=O)(=O)Cl)c(C(=O)OC)s1 | 129 to 131
O=C(O)c1cc(F)c(F)c(S(=O)(=O)Cl)c1 | 154 to 156
O=[N+]([O-])C=Cc1ccc(SC(F)(F)F)cc1 | 136 to 138
NC(=O)NCc1ccc(C(=O)O)cc1 | 291 to 293
CN(CCO)C(=O)c1ccc(O)cc1 | 123 to 125
Cc1cccc2[nH]c(CO)cc12 | 71 to 73
N#CC1(N2CCN(Cc3ccccc3)CC2)CCOCC1 | 105 to 107
Nc1ccnc(Oc2ccccc2)c1 | 52 to 54
Cc1cc(C)n(-c2ccc(C(=O)O)cc2F)n1 | 184 to 186

SMILES | melting point [°C]
Nc1ccc(F)cc1Nc1ccccc1F | 53 to 55
CN1CCCCC/C1=N\S(=O)(=O)c1cccc(N)c1 | 172 to 174
CC(Cl)C(=O)NCCc1cccs1 (configuration not stated) | < 17
Oc1ccccc1-n1ccnc1 | 218 to 220
CC1CCC(NC(=O)C(C)Cl)CC1 (configuration not stated) | 135 to 137
NC(=O)NC1CCCC1 | 192 to 194
COc1ccc(CC#N)cn1 | 49 to 51
CN(CC(=O)O)C(=O)c1cc(Cl)nnc1Cl | 175 to 177
c1ccc(-c2ncc[nH]2)nc1 | 133 to 135
CCOc1ccc(C(=O)c2ccccc2Cl)cc1 | 86 to 88
O=C(O)c1cccnc1SC(F)(F)F | 162 to 164
CCOC(=O)Cc1cccc(C#N)c1 | 47 to 49
Brc1ccc(OCC2CO2)cc1 (configuration not stated) | 49 to 51
COc1ccc2c(c1)CCCC2CC(=O)O (configuration not stated) | 84 to 86
COc1ccc(NS(=O)(=O)Cc2ccc(N)cc2)cc1 | 153 to 155
Cc1ccc(S(N)(=O)=O)cc1N | 176 to 178
O=C(O)c1ccc2nccnc2c1 | 233 to 235
O=C(O)c1ccc(F)c(I)c1 | 169 to 171
O=c1cc[nH]c2c(Br)cccc12 | 173 to 175
O=C(O)CNS(=O)(=O)c1ccc(Cl)c([N+](=O)[O-])c1 | 150 to 152
C=CCN(c1ccc(OC)cc1)S(=O)(=O)c1ccc(Cl)c(C(=O)O)c1 | 109 to 111
COC(=O)c1sccc1N=[N+]=[N-] | 69 to 71
CCOc1ccc(NS(=O)(=O)c2ccc(OC)c(N)c2)cc1 | 94 to 95
O=C(CCSc1ccccn1)c1ccc(F)cc1 | 60 to 62

SMILES | melting point [°C]
Nc1cccc(-c2nnc3n2CCCCC3)c1 | 200 to 202
N#Cc1cccc(NC(=O)CCCl)c1 | 98 to 100
O=C(O)c1cc(-c2ccco2)nc2onc(-c3ccco3)c12 | 269 to 271
CC(=O)Cn1cc(Br)cn1 | 62 to 64
CC1(C)NC(=O)N(CCOc2ccc(N)cc2)C1=O | 147 to 149
CC(C)Oc1ccc(C#N)cc1 | 50 to 52
O=C(O)C1CC12CCCc1ccccc12 (configuration not stated) | 161 to 163
COc1ccc(F)cc1C(F)(F)C(=O)O | 125 to 127
CCN(CC)S(=O)(=O)c1ccc2nc(CCl)[nH]c2c1 | 93 to 95
O=C(O)CNC(=O)c1cc(F)cc(F)c1 | 154 to 156
O=C(O)C1CC(=O)N(Cc2cccc(C(F)(F)F)c2)C1 (configuration not stated) | 109 to 111
O=C(O)CNC(=O)c1ccc(C(=O)NCC(=O)O)cc1 | 261 to 263
COC(=O)c1sc(N)nc1C(C)(C)C | 158 to 160
Nc1ccc(NC(=O)c2ccoc2)cc1C(F)(F)F | 121 to 123
O=C(O)c1ccc(Cl)o1 | 180 to 182
CC(=O)c1ccc(-c2ccncc2)cc1 | 93 to 95
CCOc1ccc(NS(=O)(=O)c2ccc(N)cc2)cc1 | 145 to 147
Cc1cccc(-c2nc(CC(=O)O)cs2)c1 | 110 to 112
c1n[nH]cc1C1CCNCC1 | 149 to 151
CS(=O)(=O)c1ccc(OCCCCC(=O)O)cc1 | 125 to 127
N#CCc1ccc(C(=O)O)cc1 | 189 to 191
CC(C)(C)OC(=O)Nc1ccc(C(=O)O)c(Cl)c1 | 169 to 171
O=C(O)CCCc1nc(-c2ccccc2)no1 | 105 to 107
Nc1cc(C2CCC2)nn1-c1ccccc1 | 87 to 89

SMILES | melting point [°C]
CS(=O)(=O)CC(O)c1ccccc1 (configuration not stated) | 103 to 105
N#CCOc1ccccc1C=O | 79 to 81
Cc1cc(C(=O)O)c2c(C)nn(C)c2n1 | 262 to 264
O=C(O)c1n[nH]ccc1=O | 199 to 201
O=C(O)CN(CC(=O)O)Cc1ccccc1 | 200 to 202
Cc1ccc(NCCC(=O)O)nc1 | 201 to 203
COc1ccc(Br)cc1Cc1nnn[nH]1 | 180 to 182
COC(=O)c1ccc(C#N)cc1OC | 101 to 103
OCc1nccc(Cl)c1Cl | 59 to 61
O=C(CCl)NCCc1ccsc1 | 75 to 77
Nc1cccc(C(=O)N2CCc3ccccc32)c1 | 125 to 127
CCN(CC)S(=O)(=O)c1ccc(N2CCOCC2)c(N)c1 | 94 to 96
O=C(O)c1noc(-c2cc(F)cc(F)c2)n1 | 136 to 138
Cc1cc(Cl)c2cc(Br)cc(C)c2n1 | 134 to 136
O=S(=O)(Cl)c1ncn[nH]1 | 58 to 60
O=S(=O)(Cl)c1ccc2c(c1)CCCC2 | 44 to 46
CN1CC(=O)N(c2ccc([N+](=O)[O-])cc2)C1=O | 161 to 163
NS(=O)(=O)c1ccc2c(c1)OCCO2 | 197 to 199
Nc1ccc2c(c1)C(=O)CCC2 | 126 to 128
O=C(CCl)NC(c1ccccc1)c1ccc2[nH]c(C(F)(F)F)nc2c1 (configuration not stated) | 193 to 195
Cc1ccc2[nH]cc(C(=O)C(F)(F)F)c2c1 | 243 to 245
O=c1[nH]c(S)nc2scc(-c3ccc(F)cc3)c12 | 200 to 202
